Measured values published in patent US20250084074A1, “SUBSTITUTED HETEROCYCLES AS HSET INHIBITORS” (MERCK PATENT GMBH, priority 2022, published 2025).
Where a name gives a salt, the structure may show the parent alone.

Each compound was assayed against HSET full length protein (Homo sapiens (Human), UniProt Q9BW19) (assay: HSET ADP-Glo Assay S - 3 μM ATP). Conditions: 5 nM HSET, 70 μg/mL microtubule, 80 min at rt, read-out: COMBINED HSET ADP GLO IC50.
Assay type: biochemical
Summary of the method: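 ADP-Glo luminescence read-out: ATPase reaction at 3 μM ATP, 80 min at room temperature, after a 10 min compound preincubation. Enzyme was full-length human HSET at 5 nM, stimulated by 70 μg/mL paclitaxel-stabilised bovine microtubules in HEPES pH 6.8 buffer with MgCl2, EGTA, Triton X-100 and DTT.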

Sequence of HSET full length protein (Q9BW19 whole entry): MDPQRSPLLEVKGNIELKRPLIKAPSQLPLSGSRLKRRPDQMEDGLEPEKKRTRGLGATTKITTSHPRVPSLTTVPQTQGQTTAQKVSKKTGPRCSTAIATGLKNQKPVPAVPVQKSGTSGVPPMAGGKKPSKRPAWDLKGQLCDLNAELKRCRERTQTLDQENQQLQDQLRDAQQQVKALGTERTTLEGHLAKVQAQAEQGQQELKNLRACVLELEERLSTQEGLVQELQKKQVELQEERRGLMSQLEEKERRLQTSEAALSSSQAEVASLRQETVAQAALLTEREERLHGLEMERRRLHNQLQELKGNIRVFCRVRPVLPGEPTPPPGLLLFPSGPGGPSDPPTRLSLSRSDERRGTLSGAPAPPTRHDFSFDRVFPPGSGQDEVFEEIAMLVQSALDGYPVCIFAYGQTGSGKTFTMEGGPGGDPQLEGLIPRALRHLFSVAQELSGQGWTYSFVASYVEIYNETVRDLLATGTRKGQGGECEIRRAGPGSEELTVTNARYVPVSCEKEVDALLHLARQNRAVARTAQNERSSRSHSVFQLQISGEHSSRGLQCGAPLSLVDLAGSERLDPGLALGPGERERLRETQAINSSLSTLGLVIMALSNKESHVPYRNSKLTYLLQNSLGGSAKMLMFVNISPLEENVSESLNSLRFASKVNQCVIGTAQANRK

| SMILES | IC50 [nM] |
| --- | --- |
| CCCOC(=O)c1sc(NC(=O)CCNC(=O)c2cc(C(=O)OC)cc([N+](=O)[O-])c2)nc1C [Example 33, Propyl 2-[3-[(3-methoxycarbonyl-5-nitro-benzoyl)amino]propanoylamino]-4-methyl-thiazole-5-carboxylate] | 161 |
| Cc1nc(NC(=O)[C@H](O)CNC(=O)c2cccc(-c3cnn(C)c3)c2)cn1C(=O)OC(C)C [Example 270] | 5100 |
| COC/C=C/c1sc(NC(=O)CCNC(=O)c2cccc(-c3noc(C)n3)c2)nc1C [Example 94, N-[3-[[5-[(E)-3-methoxyprop-1-enyl]-4-methyl-thiazol-2-yl]amino]-3-oxo-propyl]-3-(5-methyl-1,2,4-oxadiazol-3-yl)benzamide] | 13400 |
| Cc1nc(NC(=O)[C@H]2C[C@@H](Nc3nccc4ccc(Cl)cc34)C2)sc1C(=O)OC(C)(C)C [Example 108, tert-Butyl 2-((1s,3s)-3-((7-chloroisoquinolin-1-yl)amino)cyclobutane-1-carboxamido)-4-methylthiazole-5-carboxylate] | 1620 |
| CCCOC(=O)c1sc(NC(=O)CCNC(=O)c2cc(C)cc(-c3noc(C)n3)c2)nc1C [Example 26, Propyl 4-methyl-2-(3-(3-methyl-5-(5-methyl-1,2,4-oxadiazol-3-yl)benzamido)propanamido)thiazole-5-carboxylate] | 13 |
| CCOC(=O)c1sc(NC(=O)CCNC(=O)c2cccc(-c3noc(CC)n3)c2)nc1C [Example 36, Ethyl 2-(3-(3-(5-ethyl-1,2,4-oxadiazol-3-yl)benzamido)propanamido)-4-methylthiazole-5-carboxylate] | 2100 |
| CCCOC(=O)c1cc(NC(=O)CCNc2nccc3ccc(-c4noc(C)n4)cc23)nn1C [Example 131, Propyl-1-methyl-3-(3-((7-(5-methyl-1,2,4-oxadiazol-3-yl)isoquinolin-1-yl)amino)propanamido)-1 H-pyrazole-5-carboxylate formate] | 16 |
| CCCOC(=O)c1sc(NC(=O)[C@@H]2C[C@H](Nc3nccc4ccc(-c5noc(C)n5)cc34)CN2C)nc1C [Example 237, Propyl 4-methyl-2-((2S,4S)-1-methyl-4-((7-(5-methyl-1,2,4-oxadiazol-3-yl)isoquinolin-1-yl)amino)pyrrolidine-2-carboxamido)thiazole-5-carboxylate] | 100 |
| Cc1nc(-c2ccc3ccnc(NCCC(=O)Nc4cnn(C(=O)OC(C)(C)C)c4)c3c2)no1 [Example 272, tert-Butyl 4-(3-{[7-(5-methyl-1,2,4-oxadiazol-3-yl)isoquinolin-1-yl]amino}propanamido)-1 H-pyrazole-1-carboxylate] | 160 |
| CCCOC(=O)c1sc(C(=O)N2CC[C@@H](Nc3nccc4ccc(-c5noc(C)n5)cc34)[C@@H]2C)nc1C [Example 255, Propyl 4-methyl-2-((2S,3R)-2-methyl-3-((7-(5-methyl-1,2,4-oxadiazol-3-yl)isoquinolin-1-yl)amino)pyrrolidine-1-carbonyl)thiazole-5-carboxylate] | 27 |
| CCCN(C(=O)CCNC(=O)c1cccc(-c2noc(C)n2)c1)c1nc(C)c(C(=O)OCC)s1 [Example 134, Ethyl-4-methyl-2-(3-(3-(5-methyl-1,2,4-oxadiazol-3-yl)benzamido)-N-propylpropanamido)thiazole-5-carboxylate] | 1310 |
| Cc1nc(NC(=O)[C@@H](O)CNc2nccc3ccc(-c4cnn(C)c4)cc23)sc1C(=O)OC(C)(C)C [Example 181, tert-Butyl (S)-2-(2-hydroxy-3-((7-(1-methyl-1 H-pyrazol-4-yl)isoquinolin-1-yl)amino)propanamido)-4-methylthiazole-5-carboxylate] | 14 |
| CCCOC(=O)c1sc(NC(=O)CCNC(=O)c2cc(Cl)cc(-c3noc(C)n3)c2)nc1C [Example 25, Propyl 2-(3-(3-chloro-5-(5-methyl-1,2,4-oxadiazol-3-yl)benzamido)propanamido)-4-methylthiazole-5-carboxylate] | 13 |
